Results reported in patent publication US20260042753A1 (Merck Patent GmbH, priority 2019, published 2026).
Where two headings read alike, the source gives them in different places.

Tests used:
c-Kit(V654A) = c-Kit(V654A) (Homo sapiens, UniProt P10721, V654A); experiment: c-Kit(V654A) assay; assay type: biochemical
Protocol: c-Kit(V654A) (N-terminal GST-tagged, recombinant human c-Kit, amino acids 544-end containing the V654A mutation) is incubated with 8 mM MOPS pH 7.0, 0.2 mM EDTA, 250 μM GGMEDIYEFMGGKKK, 10 mM MgAcetate and [gamma-33P-ATP](specific activity approx. 500 cpm/pmol, concentration 200 μM). The reaction is initiated by the addition of the MgATP mix. After incubation for 40 minutes at room temperature, the reaction is stopped by the addition of 3% phosphoric acid solution. 10 μL of the reaction is then spotted onto a P30 filtermat and washed three times for 5 minutes in 75 mM phosphoric acid and once in methanol prior to drying and scintillation counting.

[1] = target: mutant cKIT (560-576 and V654A) in GIST430/654 cell line (Homo sapiens (Human), UniProt P10721, DEL560-576/V654A); experiment: Cellular testing of cKIT mutant inhibitors: phospho-Y307-cKIT Luminex assay in GIST430/654 cells; assay type: cell-based; settings: read-out: GIST 430/654 IC50
Protocol: Assay Principle for Cellular Testing of cKIT Mutant Inhibitors
The GIST430/654 cell line expressing mutated constitutively active cKIT receptor tyrosine kinase ([…]560-576 and V654A) was employed for assessing cellular potency of compounds. Cellular activity of mutant cKIT was determined by the degree of cKIT autophosphorylation at tyrosine 307 using a Luminex-based bead assay. GIST430/654 cells were plated with 25,000 cells per well of a 96-well plate in 100 μl medium (85% IMDM/15% FCS supplemented with 100 nM Imatinib). At the following day compounds were added in a serial dilution for 45 min. Then, cells were lysed with 90 μl lysis buffer (20 mM Hepes pH 7.5, 200 mM NaCl, 1.5 mM MgCl2×6H2O, 0.4 mM EDTA, 1% Triton-X-100, 1% Phosphatase-Inhibitor II, 20 mM D-Glycerolphosphat, 0.1% Protease-Inhibitor Cocktail III, 0.01% Benzonase) und lysates were cleared by centrifugation through a 96-well filter plate (0.65 μm). Samples were incubated with Luminex-beads which were coupled with an anti-total cKIT antibody overnight at 4° C. under gentle agitation. For detection of phospho-Y307-cKIT a phosphospecific antibody and a species-specific PE-labelled secondary antibody were added. The amount of phospho-Y307-cKIT was determined in a Luminex 200 instrument measuring 100 events per well within 60 seconds.
Counts from samples treated with compounds were calculated as percent of control from solvent treated (0.3% DMSO) samples. Dose-response curves were fitted and IC50 values were determined using Genedata Screener software.

[2] = Table 1, cKIT autophosphorylation, compounds 45 min
[3] = Table 2, corresponding triazole derivatives
[4] = Table 2, isoxazole derivatives presently described

mutant cKIT (560-576 and V654A) in GIST430/654 cell line, sequence (P10721 other isoform, or with tags, fused parts or gaps V654A/del 1-25/del 560-576 limits assumed): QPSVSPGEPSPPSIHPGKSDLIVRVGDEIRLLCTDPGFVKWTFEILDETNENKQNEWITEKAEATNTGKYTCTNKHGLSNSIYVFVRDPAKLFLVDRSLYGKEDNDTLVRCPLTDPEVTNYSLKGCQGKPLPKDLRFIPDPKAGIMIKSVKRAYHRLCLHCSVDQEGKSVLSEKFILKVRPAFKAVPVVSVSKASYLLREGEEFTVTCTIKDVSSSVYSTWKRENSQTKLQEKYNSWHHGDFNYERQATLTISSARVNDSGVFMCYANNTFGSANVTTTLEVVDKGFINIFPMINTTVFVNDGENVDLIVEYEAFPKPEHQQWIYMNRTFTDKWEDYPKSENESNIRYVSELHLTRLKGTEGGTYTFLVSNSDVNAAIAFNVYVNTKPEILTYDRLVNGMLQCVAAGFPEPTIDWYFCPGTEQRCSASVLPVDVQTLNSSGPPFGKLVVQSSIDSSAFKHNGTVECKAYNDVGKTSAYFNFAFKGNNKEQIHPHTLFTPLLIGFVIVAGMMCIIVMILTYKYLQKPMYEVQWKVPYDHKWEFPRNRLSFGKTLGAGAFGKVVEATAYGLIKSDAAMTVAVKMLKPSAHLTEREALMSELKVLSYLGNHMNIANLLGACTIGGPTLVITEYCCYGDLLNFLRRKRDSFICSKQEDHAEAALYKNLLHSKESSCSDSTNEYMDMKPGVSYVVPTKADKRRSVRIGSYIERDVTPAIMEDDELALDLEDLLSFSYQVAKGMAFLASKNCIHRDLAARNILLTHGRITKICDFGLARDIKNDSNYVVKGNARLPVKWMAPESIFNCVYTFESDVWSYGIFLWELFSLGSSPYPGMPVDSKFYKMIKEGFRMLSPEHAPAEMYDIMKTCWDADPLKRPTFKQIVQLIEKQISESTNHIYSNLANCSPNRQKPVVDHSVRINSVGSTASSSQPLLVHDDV

Compound | IC50 (c-Kit(V654A); Table 1, 200 μM ATP) | IC50 [1, 2] | further results
COCCOc1cc2[nH]nc(-c3cc(-c4ccc(C(=O)N5CCC[C@H]5CNS(C)(=O)=O)cc4)no3)c2cc1F [A90, N-{[(2S)-1-(4-{5-[5-fluoro-6-(2-methoxyethoxy)-1H-indazol-3-yl]-1,2-oxazol-3-yl}benzoyl)pyrrolidin-2-yl]methyl}methanesulfonamide] | 0.47 nM | 120 nM | –
COCCOc1cc2[nH]nc(-c3cc(-c4nc(C(=O)N5CC(N6CCOCC6)C5)cs4)no3)c2cc1F [A84, 5-fluoro-6-(2-methoxyethoxy)-3-(3-{4-[3-(morpholin-4-yl)azetidine-1-carbonyl]-1,3-thiazol-2-yl}-1,2-oxazol-5-yl)-1H-indazole] | 35 nM | 1800 nM | –
CCOc1ccc(-c2cc(-c3n[nH]c4cc(OCCOC)c(F)cc34)on2)cn1 [A38, 3-[3-(6-ethoxypyridin-3-yl)-1,2-oxazol-5-yl]-5-fluoro-6-(2-methoxyethoxy)-1H-indazole] | 35 nM | 4400 nM | –
Cn1cc(-c2ccc3c(-c4cc(-c5ccc(C(=O)N6CCC[C@@H]6C(C)(C)O)cc5)no4)n[nH]c3c2)cn1 [A8, 2-[(2R)-1-(4-{5-[6-(1-methyl-1H-pyrazol-4-yl)-1H-indazol-3-yl]-1,2-oxazol-3-yl}benzoyl)pyrrolidin-2-yl]propan-2-ol] | 20 nM | 280 nM | –
COCCOc1cc2[nH]nc(-c3cn(-c4ccc(C(=O)N5CC(C#N)C5)cc4)nn3)c2cc1F [reference compound] | – | – | IC50 (c-Kit(V654A); [3]): 13 nM; IC50 [1, 3]: 2200 nM
COCCOc1cc2[nH]nc(-c3cc(-c4ccc(C(=O)N5CC(N6CCOCC6)C5)cn4)no3)c2cc1F [A82, 5-fluoro-6-(2-methoxyethoxy)-3-(3-{5-[3-(morpholin-4-yl)azetidine-1-carbonyl]pyridin-2-yl}-1,2-oxazol-5-yl)-1H-indazole] | 9.8 nM | 420 nM | –
COCCOc1cc2[nH]nc(-c3cc(-c4ccc(C(=O)N5CCN(C)C[C@@H]5C)cc4)no3)c2cc1F [A3, 3-(3-{4-[(2S)-2,4-dimethylpiperazine-1-carbonyl]phenyl}-1,2-oxazol-5-yl)-5-fluoro-6-(2-methoxyethoxy)-1H-indazole] | 1.4 nM | 38 nM | IC50 (c-Kit(V654A); [4]): 1.4 nM; IC50 [1, 4]: 38 nM
COCCOc1cc2[nH]nc(-c3cc(-c4ccc(C(=O)N5CC[C@@H](F)C5)cc4)no3)c2cc1F [A27, 5-fluoro-3-(3-{4-[(3R)-3-fluoropyrrolidine-1-carbonyl]phenyl}-1,2-oxazol-5-yl)-6-(2-methoxyethoxy)-1H-indazole] | 1.2 nM | 57 nM | –
COCCOc1cc2[nH]nc(-c3cc(-c4ccc(C(=O)N(C)C)cc4)no3)c2cc1C#N [A6, 4-{5-[5-cyano-6-(2-methoxyethoxy)-1H-indazol-3-yl]-1,2-oxazol-3-yl}-N,N-dimethylbenzamide] | 4.1 nM | 150 nM | –
COCCOc1cc2[nH]nc(-c3cc(-c4ccc(C(=O)N5CC(C)(N)C5)cc4)no3)c2cc1F [A56, 1-(4-{5-[5-fluoro-6-(2-methoxyethoxy)-1H-indazol-3-yl]-1,2-oxazol-3-yl}benzoyl)-3-methylazetidin-3-amine] | 1.6 nM | 170 nM | –
COCCOc1cc2[nH]nc(-c3cc(-c4ccc(C(=O)N5CCN(C6COC6)CC5)nc4)no3)c2cc1F [A68, (5-{5-[5-fluoro-6-(2-methoxy-ethoxy)-1H-indazol-3-yl]-isoxazol-3-yl}-pyridin-2-yl)-(4-oxetan-3-yl-piperazin-1-yl)-methanone] | 16 nM | 870 nM | –
COCCOc1cc2[nH]nc(-c3cc(-c4ccc(C(=O)N5CC(n6cccn6)C5)cc4)no3)c2cc1F [A75, 5-fluoro-6-(2-methoxyethoxy)-3-(3-{4-[3-(1H-pyrazol-1-yl)azetidine-1-carbonyl]phenyl}-1,2-oxazol-5-yl)-1H-indazole] | 1.4 nM | 59 nM | –
COCCOc1cc2[nH]nc(-c3cc(-c4ccc(C(=O)N5CCOC[C@H]5C)cc4)no3)c2cc1F [A114, 5-fluoro-6-(2-methoxyethoxy)-3-(3-{4-[(3R)-3-methylmorpholine-4-carbonyl]phenyl}-1,2-oxazol-5-yl)-1H-indazole] | 0.91 nM | 56 nM | –
COCCOc1cc2[nH]nc(-c3cn(-c4ccc(C(=O)N5CC(N6CCOCC6)C5)c(F)c4)nn3)c2cc1F [reference compound] | – | – | IC50 (c-Kit(V654A); [3]): 20 nM; IC50 [1, 3]: 700 nM

Continued, in another order:

IC50 (c-Kit(V654A); Table 1, 200 μM ATP) | IC50 [1, 2] | Compound | further results
2.5 nM | 170 nM | COCCOc1cc2[nH]nc(-c3cc(-c4ccc(C(=O)N5CCC6(CN(C)C6)C5)cc4)no3)c2cc1F [A160, 5-fluoro-6-(2-methoxyethoxy)-3-[3-(4-{2-methyl-2,6-diazaspiro[3.4]octane-6-carbonyl}phenyl)-1,2-oxazol-5-yl]-1H-indazole] | –
0.69 nM | 46 nM | COCCOc1cc2[nH]nc(-c3cc(-c4ccc(C(=O)N5CC(c6ccccn6)C5)cc4)no3)c2cc1F [A149, 5-fluoro-6-(2-methoxyethoxy)-3-(3-{4-[3-(pyridin-2-yl)azetidine-1-carbonyl]phenyl}-1,2-oxazol-5-yl)-1H-indazole] | –
0.71 nM | 240 nM | COCCOc1cc2[nH]nc(-c3cc(-c4ccc(C(=O)N5CC6(C5)CS(=O)(=O)C6)cc4)no3)c2cc1F [A151, 6-(4-{5-[5-fluoro-6-(2-methoxyethoxy)-1H-indazol-3-yl]-1,2-oxazol-3-yl}benzoyl)-2lambda6-thia-6-azaspiro[3.3]heptane-2,2-dione] | –
1.9 nM | 48 nM | COCCOc1cc2[nH]nc(-c3cc(-c4ccc(C(=O)N5CCO[C@@H](C)C5)cc4)no3)c2cc1F [A189, 5-fluoro-6-(2-methoxyethoxy)-3-(3-{4-[(2S)-2-methylmorpholine-4-carbonyl]phenyl}-1,2-oxazol-5-yl)-1H-indazole] | –
0.83 nM | 45 nM | COCCOc1cc2[nH]nc(-c3cc(-c4ccc(C(=O)N5CCOC[C@@H]5C)cc4)no3)c2cc1F [A115, 5-fluoro-6-(2-methoxyethoxy)-3-(3-{4-[(3S)-3-methylmorpholine-4-carbonyl]phenyl}-1,2-oxazol-5-yl)-1H-indazole] | –
0.53 nM | 27 nM | COCCOc1cc2[nH]nc(-c3cc(-c4ccc(C(=O)N5CC6(CCOCC6)C5)cc4)no3)c2cc1F [A165, 2-(4-{5-[5-fluoro-6-(2-methoxyethoxy)-1H-indazol-3-yl]-1,2-oxazol-3-yl}benzoyl)-7-oxa-2-azaspiro[3.5]nonane] | –
0.78 nM | 44 nM | COCCOc1cc2[nH]nc(-c3cc(-c4ccc(C(=O)N5CCN(C6COC6)CC5)cc4)no3)c2cc1Cl [A194, (4-{5-[5-chloro-6-(2-methoxy-ethoxy)-1H-indazol-3-yl]-isoxazol-3-yl}-phenyl)-(4-oxetan-3-yl-piperazin-1-yl)-methanone] | –
1.8 nM | 58 nM | COCCOc1cc2[nH]nc(-c3cc(-c4ccc(C(=O)N5CCN(C6COC6)C[C@@H]5C)cc4)no3)c2cc1F [A191, 5-fluoro-6-(2-methoxyethoxy)-3-(3-{4-[(2S)-2-methyl-4-(oxetan-3-yl)piperazine-1-carbonyl]phenyl}-1,2-oxazol-5-yl)-1H-indazole] | –
1.1 nM | 60 nM | COCCOc1cc2[nH]nc(-c3cc(-c4ccc(C(=O)N5CCN([C@@H]6CCOC6)CC5)cc4)no3)c2cc1F [A185, 5-fluoro-6-(2-methoxyethoxy)-3-[3-(4-{4-[(3R)-oxolan-3-yl]piperazine-1-carbonyl}phenyl)-1,2-oxazol-5-yl]-1H-indazole] | –
